In test [1] the target is Recombinant, full length human FLAG-tagged ATM (Homo sapiens (Human), UniProt Q13315). Put plainly: ATM ELISA for p53 S15 phosphorylation. It counts as biochemical. The note with it: for IC50: 0.75 nM ATM, 25 nM p53, 10 μM ATP, 30 min at 20° C., read-out: ATM BIO IC50. The procedure: ATM: Recombinant, full length human FLAG-tagged ATM activity (Eurofins 14-933) was measured in an ELISA for p53 S15 phosphorylation, in a 384 well V-bottom polypropylene plate (Greiner Bio One 781280). Reactions contained 0.75 nM ATM, 25 nM full length myc tagged p53 (Eurofins 23-034), 10 μM UltraPure ATP (Promega V915B) and serial dilutions of inhibitors (0.1% DMSO final) in 25 mM HEPES, pH 7.5. 5 mM MgCl2, 2.5 mM MnCl2, 0.006% Brij-35, 0.5% glycerol, 0.1 mg/ml BSA, 0.5 mM DTT and were allowed to proceed for 30 min at 20° C. 70 mM EDTA final terminated the kinase reactions. An aliquot of the terminated reaction (25 μl) was transferred to a 384-well, high binding microplate (Greiner Bio One 781061), precoated with anti-myc capture antibody overnight (Millipore 05-724) diluted in 1:1000 in PBS, then blocked with Odyssey blocking buffer (LI-COR Biosciences 92740000) for 60 min at 20° C. The terminated reaction was allowed to capture for 2 h at 20° C. Phosphorylation was measured using an antibody specific to p53 S15 phosphorylation (1:5000 Abcam ab38497), anti-rabbit HRP (1:1000 Cell Signalling Technology, 7074) and TMB (ab171522). Antibodies were diluted in Odyssey blocking buffer and incubated for 60 min at 20° C. Three washes with PBS containing 0.05% (v/v) Tween 20 (PBS-T) were performed between each incubation. The TMB reaction was stopped with an equal volume of 0.2 M sulfuric acid and absorbance read at 450 nm on the Perkin Elmer Envision within 30 min of terminating the reaction. […] IC50 values represent the mean from at least two independent experiments.
For orientation: In an ELISA, binding on a coated surface is turned into a signal by an enzyme label.

A further test concerns the target cellular ATM activity (Homo sapiens (Human), UniProt Q13315). Put plainly: Inhibition of cellular ATM activity: etoposide-stimulated KAP1 phosphorylation in U20S cells. Format: cell-based. The following applies: 100 μM etoposide, 60 min, read-out: ATM CELL IC50. The procedure: Inhibition of cellular ATM activity was determined by changes in etoposide-stimulated KAP1 phosphorylation, based on the work of Guo et al. 2014.
Cryopreserved U20S cells were plated overnight at 6 k cells/well in black walled, clear bottomed 384 well plates (Greiner Bio One 781090). After overnight incubation (37 C, 5% CO2), cells were incubated with titrations of test compounds (0.3% DMSO final) in the presence of 100 μM etoposide (Sigma E1383) to stimulate ATM via induction of double stranded DNA breaks. After 60 min, cells were fixed using 100% cold methanol and incubated at −20° C. for 10 min. Fixed cells were washed with PBS containing 0.05% (v/v) Tween 20 (PBS-T) prior to a 60 minute blocking step in Odyssey blocking buffer (LI-COR Biosciences 92740000). Primary antibodies (1:1000 phosphorylated KAP1: Cell Signalling Technology 4127, 1:5000 total KAP1: Cell Signaling Technology 5868) were diluted in Odyssey blocking buffer and incubated overnight at 4° C., before addition of IRDye(R) conjugated secondary antibodies (LI-COR Biociences 926-32211, LI-COR Biosciences 926-68070) diluted 1:2000 in Odyssey blocking buffer for 60 min at room temperature and detection by LI-COR Odyssey (ImageStudio version 2.1.10, focus offset 4 mm, resolution 169 μm, lowest quality, intensities of 1 and 3 for 700 and 800 channels respectively). Immunoreactivity was quantified and the ratio of phosphorylated KAP1 calculated by dividing by the total KAP1 immunoreactivity. The percentage of inhibition was calculated for each concentration of compound using 100% (100 μM etoposide+30 μM KU-60019) and 0% effect controls (100 μM etoposide+DMSO). IC50 values represent the mean from at least two independent experiments.

cellular ATM activity, sequence (Q13315 whole entry): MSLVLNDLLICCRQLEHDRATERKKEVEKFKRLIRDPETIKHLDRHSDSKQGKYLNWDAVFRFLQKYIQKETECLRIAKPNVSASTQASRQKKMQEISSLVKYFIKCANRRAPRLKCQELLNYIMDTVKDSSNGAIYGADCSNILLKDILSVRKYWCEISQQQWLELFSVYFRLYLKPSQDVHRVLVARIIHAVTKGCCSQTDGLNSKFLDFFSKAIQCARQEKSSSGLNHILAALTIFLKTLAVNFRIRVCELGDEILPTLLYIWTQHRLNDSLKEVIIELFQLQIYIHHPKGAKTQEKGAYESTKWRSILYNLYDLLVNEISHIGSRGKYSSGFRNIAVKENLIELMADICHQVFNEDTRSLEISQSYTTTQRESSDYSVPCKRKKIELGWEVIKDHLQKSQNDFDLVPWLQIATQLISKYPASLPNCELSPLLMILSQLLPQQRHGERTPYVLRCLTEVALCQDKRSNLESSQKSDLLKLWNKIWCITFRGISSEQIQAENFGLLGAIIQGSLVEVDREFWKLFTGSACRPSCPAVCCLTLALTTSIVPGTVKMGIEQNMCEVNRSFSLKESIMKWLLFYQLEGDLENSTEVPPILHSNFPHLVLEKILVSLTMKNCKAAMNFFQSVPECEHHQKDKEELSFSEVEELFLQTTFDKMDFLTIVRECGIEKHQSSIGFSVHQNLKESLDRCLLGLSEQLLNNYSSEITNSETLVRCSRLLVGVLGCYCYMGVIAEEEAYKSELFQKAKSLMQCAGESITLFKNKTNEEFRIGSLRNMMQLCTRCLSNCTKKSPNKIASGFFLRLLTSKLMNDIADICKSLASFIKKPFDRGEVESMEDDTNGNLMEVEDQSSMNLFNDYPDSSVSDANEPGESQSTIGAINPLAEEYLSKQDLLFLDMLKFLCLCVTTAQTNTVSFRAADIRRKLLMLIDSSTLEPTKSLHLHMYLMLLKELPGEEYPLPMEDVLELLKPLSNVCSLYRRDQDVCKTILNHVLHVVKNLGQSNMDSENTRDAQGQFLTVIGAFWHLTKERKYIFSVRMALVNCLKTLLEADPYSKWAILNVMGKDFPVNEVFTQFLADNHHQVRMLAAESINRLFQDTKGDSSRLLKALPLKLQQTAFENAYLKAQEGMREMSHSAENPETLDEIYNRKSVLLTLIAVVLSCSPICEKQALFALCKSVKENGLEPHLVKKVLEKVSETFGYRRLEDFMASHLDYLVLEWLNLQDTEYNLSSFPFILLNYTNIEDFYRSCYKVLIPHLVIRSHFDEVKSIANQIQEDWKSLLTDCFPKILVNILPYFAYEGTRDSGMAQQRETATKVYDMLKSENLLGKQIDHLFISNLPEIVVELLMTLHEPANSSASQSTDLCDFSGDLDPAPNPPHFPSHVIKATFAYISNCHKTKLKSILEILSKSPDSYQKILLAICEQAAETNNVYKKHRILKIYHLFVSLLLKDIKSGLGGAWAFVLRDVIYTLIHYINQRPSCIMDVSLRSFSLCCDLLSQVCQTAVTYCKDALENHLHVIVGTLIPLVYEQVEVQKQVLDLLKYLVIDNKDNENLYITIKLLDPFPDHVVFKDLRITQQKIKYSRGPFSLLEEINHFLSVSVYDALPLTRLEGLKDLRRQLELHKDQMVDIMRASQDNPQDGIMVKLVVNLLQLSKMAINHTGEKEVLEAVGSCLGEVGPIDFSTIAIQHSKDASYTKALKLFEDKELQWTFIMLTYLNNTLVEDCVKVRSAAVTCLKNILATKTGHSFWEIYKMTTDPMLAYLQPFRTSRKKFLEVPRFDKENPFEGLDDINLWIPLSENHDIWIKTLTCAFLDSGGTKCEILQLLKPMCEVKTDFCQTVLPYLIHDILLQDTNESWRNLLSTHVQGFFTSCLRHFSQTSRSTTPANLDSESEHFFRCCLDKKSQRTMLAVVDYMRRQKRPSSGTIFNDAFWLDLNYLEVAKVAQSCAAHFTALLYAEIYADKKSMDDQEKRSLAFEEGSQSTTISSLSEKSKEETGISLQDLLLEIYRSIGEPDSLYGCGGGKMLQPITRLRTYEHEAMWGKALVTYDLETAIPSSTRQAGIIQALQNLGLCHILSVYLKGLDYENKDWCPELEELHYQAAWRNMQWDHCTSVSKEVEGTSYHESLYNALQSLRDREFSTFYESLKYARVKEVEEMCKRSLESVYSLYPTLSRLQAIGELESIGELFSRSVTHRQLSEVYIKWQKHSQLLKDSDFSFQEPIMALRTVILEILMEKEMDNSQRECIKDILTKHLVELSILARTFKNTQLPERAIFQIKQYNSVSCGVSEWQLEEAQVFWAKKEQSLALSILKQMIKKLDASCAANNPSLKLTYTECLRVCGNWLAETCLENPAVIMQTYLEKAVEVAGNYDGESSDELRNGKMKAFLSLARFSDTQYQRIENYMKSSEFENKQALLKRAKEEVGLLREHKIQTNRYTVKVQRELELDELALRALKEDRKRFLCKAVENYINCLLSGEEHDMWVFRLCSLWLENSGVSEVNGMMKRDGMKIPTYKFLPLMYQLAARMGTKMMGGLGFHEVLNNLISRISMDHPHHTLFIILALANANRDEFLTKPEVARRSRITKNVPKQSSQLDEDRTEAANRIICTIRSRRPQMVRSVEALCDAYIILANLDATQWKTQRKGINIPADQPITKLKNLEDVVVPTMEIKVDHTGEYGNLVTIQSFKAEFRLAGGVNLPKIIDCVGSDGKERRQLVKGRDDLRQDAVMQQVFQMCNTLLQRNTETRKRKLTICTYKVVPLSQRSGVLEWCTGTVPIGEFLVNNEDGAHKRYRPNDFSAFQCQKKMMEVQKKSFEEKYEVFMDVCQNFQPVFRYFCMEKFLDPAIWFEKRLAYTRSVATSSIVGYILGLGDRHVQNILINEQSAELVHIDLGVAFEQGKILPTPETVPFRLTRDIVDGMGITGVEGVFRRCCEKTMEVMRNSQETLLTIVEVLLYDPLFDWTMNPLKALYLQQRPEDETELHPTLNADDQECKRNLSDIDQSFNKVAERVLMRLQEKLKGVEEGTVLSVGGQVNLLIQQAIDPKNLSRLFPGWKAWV
Recombinant, full length human FLAG-tagged ATM, sequence (Q13315 whole entry): as above

Consider `CC1(C)CCCN(c2cc(N3CCOCC3)cc(=O)[nH]2)[C@@H](Cc2ccccc2)C1` [Example 76, (R)-6-(2-benzyl-4,4-dimethylazepan-1-yl)-4-morpholinopyridin-2(1H)-one], for which the IC50 in test [1] was found to be 70.2 nM; at cellular ATM activity, 2680 nM.

Turning to `Cn1c(N2CCC[C@@H]2Cc2ccccc2)nc(N2CCOCC2)cc1=O` [Example 176, (R)-2-(2-benzylpyrrolidin-1-yl)-3-methyl-6-morpholinopyrimidin-4(3H)-one], the results for the IC50 (in test [1]; on cellular ATM activity) were 5.1 nM and 462 nM, respectively. Take `O=c1cc(N2CCOCC2)cc(N2C[C@@H]3CC[C@@H](C3)[C@@H]2Cc2ccccc2)[nH]1` [Example 134]: the figures for the IC50 (in test [1]; at cellular ATM activity) were 13.9 nM and 581 nM, respectively.

Take `COc1cccc(C[C@H]2CCCCCN2c2cc(N3CCOCC3)cc(=O)[nH]2)c1` [Example 23, (R)-6-(2-(3-methoxybenzyl)azepan-1-yl)-4-morpholinopyridin-2(1H)-one]: the 50% inhibitory concentration (IC50) in test [1] was 6.5 nM; at cellular ATM activity, 527 nM.

For the compound `O=c1cc(N2CCOCC2)cc(N2CCC[C@@H]2Cc2cccc(OC3CCOCC3)c2)[nH]1` [Example 146, (R)-4-morpholino-6-(2-(3-((tetrahydro-2H-pyran-4-yl)oxy)benzyl)pyrrolidin-1-yl)pyridin-2(1H)-one], the IC50 in test [1] was found to be 74.2 nM; at cellular ATM activity, 1860 nM. Take `CC1C[C@H](Cc2ccccc2)N(c2cc(N3CCOCC3)cc(=O)[nH]2)C1` (single isomer, unassigned) [Example 101, 6-((2R,4R*)-2-benzyl-4-methylpyrrolidin-1-yl)-4-morpholinopyridin-2(1H)-one]: the IC50 in test [1] came to 17.1 nM; on cellular ATM activity, 1410 nM. Consider `COC[C@@H](C)Oc1ccc(C[C@H]2CCCN2c2cc(N3CCOCC3)cc(=O)[nH]2)cc1` [Example 145, 6-((R)-2-(4-(((R)-1-methoxypropan-2-yl)oxy)benzyl)pyrrolidin-1-yl)-4-morpholinopyridin-2(1H)-one], for which the concentration for half-maximal inhibition (IC50) in test [1] amounted to 65.6 nM; at cellular ATM activity, 2030 nM.

As to `O=c1cc(N2CCOCC2)nc(N2CCCCC[C@@H]2Cc2cccc3c2OCC3)[nH]1` [Example 225], the half-inhibitory concentration (IC50) in test [1] is 3.9 nM; on cellular ATM activity, 260 nM. In the same order, the values of `CC(C)(c1ccccc1)[C@H]1CCCN1c1nc(N2CCOCC2)cc(=O)[nH]1` [Example 196] are 46.9 nM and 975 nM. In the same order, the values of `O=c1cc(N2CCOCC2)nc(N2CC[C@@H](O)[C@@H]2Cc2ccccc2)[nH]1` [Example 258, 2-((2S,3R)-2-benzyl-3-hydroxypyrrolidin-1-yl)-6-morpholinopyrimidin-4(3H)-one] are 6.8 nM and 881 nM. On the same counts, the results for `Cc1ccccc1C[C@H]1CCCCCN1c1cc(N2CCOCC2)cc(=O)[nH]1` [Example 25, (R)-6-(2-(2-methylbenzyl)azepan-1-yl)-4-morpholinopyridin-2(1H)-one] are 13.7 nM and 530 nM. As for `O=c1cc(N2CCOCC2)cc(N2CCCCC[C@@H]2Cc2cccs2)[nH]1` [Example 31, 4-morpholino-6-[(2R)-2-(2-thienylmethyl)azepan-1-yl]-1H-pyridin-2-one], the concentration for half-maximal inhibition (IC50) turned out to be 12.3 nM in test [1] and 260 nM on cellular ATM activity.

Regarding `CC1(C)CCC[C@H](Cc2ccccc2)N(c2nc(N3CCOCC3)cc(=O)[nH]2)C1` [Example 245], the IC50 in test [1] was found to be 17.3 nM; at cellular ATM activity, 1240 nM. With `O=c1cc(N2CCOCC2)cc(N2CC[C@@H](OC(F)F)[C@@H]2Cc2ccccc2)[nH]1` [Example 90, 6-((2S,3R)-2-benzyl-3-(difluoromethoxy)pyrrolidin-1-yl)-4-morpholinopyridin-2(1H)-one], the IC50 in test [1] was 39.1 nM; on cellular ATM activity it was 874 nM. As to `C[C@@H]1CN(c2cc(=O)[nH]c(N3CCCCC[C@@H]3Cc3ccccc3F)n2)CCO1` [Example 317, 2-((R)-2-(2-fluorobenzyl)azepan-1-yl)-6-((R)-2-methylmorpholino)pyrimidin-4(3H)-one], the values for the concentration for half-maximal inhibition (IC50) (in test [1]; at cellular ATM activity) were 46.1 nM and 857 nM, respectively.

On to `O=c1cc(N2CCOCC2)nc(N2CCCCC[C@@H]2Cc2ccc(F)cc2)[nH]1` [Example 222], for which the IC50 in test [1] came out at 5.7 nM; at cellular ATM activity, 163 nM. For the compound `C[C@@H]1CN(c2cc(=O)[nH]c(N3CCCCC[C@@H]3Cc3ccccc3)n2)CCO1` [Example 270, 2-((R)-2-benzylazepan-1-yl)-6-((R)-2-methylmorpholino)pyrimidin-4(3H)-one], the concentration for half-maximal inhibition (IC50) worked out at 7.4 nM in test [1] and 818 nM on cellular ATM activity. Turning to `CO[C@@H]1CCN(c2nc(N3CCOCC3)cc(=O)[nH]2)[C@H]1Cc1ccccc1` [Example 257, 2-((2S,3R)-2-benzyl-3-methoxypyrrolidin-1-yl)-6-morpholinopyrimidin-4(3H)-one], the results for the half-maximal inhibitory concentration (IC50) (in test [1]; at cellular ATM activity) were 4 nM and 411 nM, respectively. As to `O=c1cc(N2CCOCC2)nc(N2CCC[C@@H]2Cc2ccc(Cl)c(Cl)c2)[nH]1` [Example 190], the IC50 came out at 4.2 nM in test [1] and 939 nM on cellular ATM activity. In the case of `O=c1cc(N2CCOCC2)nc(N2CCC[C@@H]2Cc2ccc(F)cc2)[nH]1` [Example 193], the IC50 came to 9.7 nM in test [1] and 598 nM at cellular ATM activity. For `C[C@@H]1CN(c2cc(N3[C@@H]4CC[C@@H](C4)[C@@H]3Cc3ccccc3)[nH]c(=O)c2)CCO1` [Example 117, 6-((1R,3S,4S)-3-benzyl-2-azabicyclo[2.2.1]heptan-2-yl)-4-((R)-2-methylmorpholino) pyridin-2(1H)-one], the IC50 in test [1] is 72.8 nM; at cellular ATM activity it was 684 nM. Consider `C[C@@H]1CN(c2cc(=O)[nH]c(N3CCCCC[C@@H]3Cc3cccc4c3OCC4)n2)CCO1` [Example 305, 2-((R)-2-((2,3-dihydrobenzofuran-7-yl)methyl)azepan-1-yl)-6-((R)-2-methylmorpholino)pyrimidin-4(3H)-one], for which the values for the IC50 (in test [1]; at cellular ATM activity) were 39 nM and 569 nM, respectively. In the case of `O=c1cc(N2CCOCC2)nc(N2CCCC(F)(F)C[C@@H]2Cc2ccccc2)[nH]1` [Example 244], the IC50 in test [1] was 10.2 nM; on cellular ATM activity, 273 nM.

On to `O=c1cc(N2CCOCC2)cc(N2CCCCC[C@@H]2Cc2ccc(F)cc2)[nH]1` [Example 52, (R)-6-(2-(4-fluorobenzyl)azepan-1-yl)-4-morpholino pyridin-2(1H)-one], for which the IC50 in test [1] was 35.3 nM; at cellular ATM activity, 839 nM.

In the case of `COc1ccccc1CC1CC(F)(F)CCCN1c1nc(N2CCOCC2)cc(=O)[nH]1` (stereo not shown) [Example 239], the 50% inhibitory concentration (IC50) in test [1] was determined as 36.5 nM; on cellular ATM activity, 2020 nM. Take `COc1ccccc1C[C@H]1CC(F)(F)CCCN1c1cc(N2CCOCC2)cc(=O)[nH]1` [Example 62, (S)-6-(4,4-difluoro-2-(2-methoxybenzyl)azepan-1-yl)-4-morpholinopyridin-2(1H)-one]: the IC50 in test [1] is 40.5 nM; at cellular ATM activity, 1250 nM. For `C[C@@H]1CN(c2cc(=O)[nH]c(N3C[C@@H]4C[C@@H]4[C@@H]3Cc3ccccc3)n2)CCO1` [Example 292, 2-((1S,2S,5R)-2-benzyl-3-azabicyclo[3.1.0]hexan-3-yl)-6-((R)-2-methylmorpholino)pyrimidin-4(3H)-one], the IC50 in test [1] was 5.5 nM; on cellular ATM activity, 1310 nM. Consider `O=c1cc(N2CCOCC2)cc(N2CCC[C@H]2Cc2ccccc2)[nH]1` [Example 2, (S)-6-(2-benzylpyrrolidin-1-yl)-4-morpholinopyridin-2(1H)-one], for which the “biological activity in the biochemical assay” value in test [1] (qualitative statement used for stereochemical assignment) is recorded as “lack of biological activity”.

Broadly, the IC50 is the point on the concentration scale where inhibition reaches its midpoint.

The values above are taken from patent US11685734B2, “ATM kinase inhibitors and compositions and methods of use thereof” (CHDI Foundation, Inc., priority 2019, dated 2023).
